Type in all cases: functional, cell-based
The target of assay [1] is T1, ATP-binding cassette sub-family C member 2 (Homo sapiens, UniProt Q92887). As to the kind of experiment: TP_TRANSPORTER: inhibition of Vinblastine transepithelial transport (basal to apical) in MRP2-expressing MDCK cells.
Assay [2] deals with T1, ATP-binding cassette sub-family C member 2. The assay is described as follows: TP_TRANSPORTER: inhibition of Vinblastine transepithelial transport (basal to apical)(GF120918: 12 uM) in MRP2-expressing MDCK cells.
Assay [3] shares this target. As to the kind of experiment: TP_TRANSPORTER: inhibition of Vinblastine transepithelial transport (basal to apical)(Quinidine: 15 uM) in MRP2-expressing MDCK cells.

T1 sequence (Q92887 whole entry): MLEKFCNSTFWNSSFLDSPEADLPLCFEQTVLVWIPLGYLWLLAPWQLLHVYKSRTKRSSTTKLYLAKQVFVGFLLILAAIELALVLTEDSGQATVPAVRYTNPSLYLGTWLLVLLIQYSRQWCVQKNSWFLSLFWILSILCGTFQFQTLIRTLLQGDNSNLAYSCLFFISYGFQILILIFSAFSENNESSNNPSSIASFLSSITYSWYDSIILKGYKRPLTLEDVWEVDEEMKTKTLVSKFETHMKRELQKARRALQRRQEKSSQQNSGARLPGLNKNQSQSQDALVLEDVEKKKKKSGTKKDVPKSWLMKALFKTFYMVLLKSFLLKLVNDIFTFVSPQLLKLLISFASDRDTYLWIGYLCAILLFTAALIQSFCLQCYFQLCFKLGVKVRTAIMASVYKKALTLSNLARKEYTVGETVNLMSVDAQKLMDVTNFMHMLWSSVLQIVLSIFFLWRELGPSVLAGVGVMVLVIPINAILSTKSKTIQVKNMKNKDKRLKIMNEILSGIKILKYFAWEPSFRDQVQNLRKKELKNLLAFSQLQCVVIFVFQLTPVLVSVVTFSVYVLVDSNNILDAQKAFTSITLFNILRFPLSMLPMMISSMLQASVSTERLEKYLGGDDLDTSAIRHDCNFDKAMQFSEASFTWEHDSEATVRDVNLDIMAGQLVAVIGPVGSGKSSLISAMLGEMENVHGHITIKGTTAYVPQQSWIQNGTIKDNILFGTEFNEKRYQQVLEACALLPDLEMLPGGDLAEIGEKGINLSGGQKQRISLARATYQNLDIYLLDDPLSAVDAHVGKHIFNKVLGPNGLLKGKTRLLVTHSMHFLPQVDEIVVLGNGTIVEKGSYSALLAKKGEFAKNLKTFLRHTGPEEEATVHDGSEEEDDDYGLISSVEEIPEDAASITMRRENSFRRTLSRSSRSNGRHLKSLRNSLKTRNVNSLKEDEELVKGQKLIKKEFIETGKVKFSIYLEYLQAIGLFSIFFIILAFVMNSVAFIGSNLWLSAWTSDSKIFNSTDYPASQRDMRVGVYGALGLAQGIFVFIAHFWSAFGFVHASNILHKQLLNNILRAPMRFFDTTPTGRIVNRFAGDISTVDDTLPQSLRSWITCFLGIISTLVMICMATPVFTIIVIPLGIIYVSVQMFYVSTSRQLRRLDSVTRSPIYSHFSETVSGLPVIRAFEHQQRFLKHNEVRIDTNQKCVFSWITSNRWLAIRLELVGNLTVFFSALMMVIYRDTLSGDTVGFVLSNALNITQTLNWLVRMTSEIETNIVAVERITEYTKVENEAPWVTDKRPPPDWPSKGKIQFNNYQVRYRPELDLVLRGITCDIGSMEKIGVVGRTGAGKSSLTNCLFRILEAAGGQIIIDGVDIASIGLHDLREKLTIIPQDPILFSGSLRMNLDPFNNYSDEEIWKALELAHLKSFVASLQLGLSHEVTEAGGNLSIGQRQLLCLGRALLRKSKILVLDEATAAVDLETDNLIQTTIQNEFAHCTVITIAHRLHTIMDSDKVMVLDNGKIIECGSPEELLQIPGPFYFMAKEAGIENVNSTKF

In the case of `COC(=O)[C@H]1[C@H]2C[C@@H]3c4[nH]c5cc(OC)ccc5c4CCN3C[C@H]2C[C@@H](OC(=O)c2cc(OC)c(OC)c(OC)c2)[C@@H]1OC` [RESERPINE], the affinity in assay [1] corresponds to a Ki of 295 µM.
Regarding `COc1cc([C@@H]2c3cc4c(cc3[C@@H](O[C@@H]3O[C@@H]5CO[C@@H](C)O[C@H]5[C@H](O)[C@H]3O)[C@H]3COC(=O)[C@H]23)OCO4)cc(OC)c1O` [ETOPOSIDE], the affinity in assay [1], expressed as Ki, was 756 µM.
On the same count and under the same terms, then `COc1cccc2c1C(=O)c1c(O)c3c(c(O)c1C2=O)C[C@@](O)(C(C)=O)C[C@@H]3O[C@H]1C[C@H](N)[C@H](O)[C@H](C)O1` [DAUNORUBICIN], with 49.4 µM; and `CN(C)C(=O)CCSC(SCCC(=O)O)c1cccc(/C=C/c2ccc3ccc(Cl)cc3n2)c1` (configuration not stated) [MK-571], with 26.4 µM.
Turning to `COc1cc2c(cc1OC)CN(CCc1ccc(NC(=O)c3cccc4c(=O)c5cccc(OC)c5[nH]c34)cc1)CC2.Cl` [ELACRIDAR HYDROCHLORIDE], in assay [2], the inhibition constant (Ki) entry was “is not an inhibitor [Ki=No inhibition]”.
With `CC[C@]1(O)C[C@H]2CN(CCc3c([nH]c4ccccc34)[C@@](C(=O)OC)(c3cc4c(cc3OC)N(C=O)[C@H]3[C@@](O)(C(=O)OC)[C@H](OC(C)=O)[C@]5(CC)C=CCN6CC[C@]43[C@@H]65)C2)C1` [VINCRISTINE], the affinity in assay [1], expressed as Ki, was 802 µM.
Regarding `C=C[C@H]1CN2CC[C@H]1C[C@@H]2[C@@H](O)c1ccnc2ccc(OC)cc12` [QUINIDINE], the Ki entry in assay [3] is “is not an inhibitor [Ki=No inhibition]”.
